Laboratory results taken from patent US11839215B2, “Uracil compound and harmful arthropod control composition containing same” (Sumitomo Chemical Company, Limited, priority 2018, dated 2023).

System: common cutworms (Spodoptera litura)
Assay: Test Example 1: spray on cabbage seedling, mortality of common cutworm larvae
Format: in vivo
Details: 500 ppm diluted solution sprayed on cabbage seedling 20 mL/seedling; five second instar larvae; 25° C., 5 days
Experimental: The compound A is made to a formulation according to a similar method to that described in the Formulation Example 5, and thereto is added water containing 0.03 v/v % of shindain (registered trademark) to prepare a diluted solution containing 500 ppm of the test compound.
The diluted solution was sprayed into the cabbage (Brassicae oleracea) seedling (on the developmental stage of the second to third true leaf) that is planted in a container in a ratio of 20 mL/seedling.
Thereafter, the stem and leaf thereof was cut out and then was installed into the container that was covered with the filter paper. Five common cutworms (Spodoptera litura) at the second instar larval stages were released into the container, and the container was allowed to stand at 25° C. for 5 days. […] Mortality (%)={1−Number of the surviving insects/5}×100

SMILES | mortality of insects
CCOC(=O)COc1nc(C)cc(C)c1Oc1cc(-n2c(=O)cc(C(F)(F)F)n(C)c2=O)c(F)cc1Cl [Compound A] | 100%
CCOC(=O)COc1ncccc1Oc1cc(-n2c(=O)cc(C(F)(F)F)n(C)c2=O)c(F)cc1Cl [Compound B] | 0%
